According to PubChem BioAssay (NCI):
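Five compound concentrations were applied to cells in 96-well plates for 48 hours; endpoints were derived by simple linear interpolation of the resulting dose-response curve. Here, GI50 denotes the concentration required for 50% inhibition of growth. TGI is the concentration that stops growth completely.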

Legend:
Test in all cases: inhibition of tumour cell growth, NCI panel, 48 h
[1] = test system: 786-0 renal
[2] = test system: A498 renal
[3] = test system: A549 NSCLC
[4] = test system: ACHN renal
[5] = test system: BT-549 breast
[6] = test system: CAKI-1 renal
[7] = test system: CCRF-CEM leukemia
[8] = test system: COLO 205 colon
[9] = test system: DU-145 prostate
[10] = test system: EKVX NSCLC
[11] = test system: HCT-116 colon
[12] = test system: HCT-15 colon
[13] = test system: HL-60(TB) leukemia
[14] = test system: HOP-62 NSCLC
[15] = test system: HOP-92 NSCLC
[16] = test system: HS 578T breast
[17] = test system: HT29 colon
[18] = test system: IGROV1 ovarian
[19] = test system: K-562 leukemia
[20] = test system: KM12 colon
[21] = test system: LOX IMVI melanoma
[22] = test system: M14 melanoma
[23] = test system: MCF7 breast
[24] = test system: MDA-MB-231 breast
[25] = test system: MDA-MB-435
[26] = test system: MDA-N
[27] = test system: MOLT-4 leukemia
[28] = test system: NCI-H226 lung
[29] = test system: NCI-H23 lung
[30] = test system: NCI-H460 lung
[31] = test system: NCI/ADR-RES ovarian
[32] = test system: OVCAR-3 ovarian
[33] = test system: OVCAR-5 ovarian
[34] = test system: OVCAR-8 ovarian
[35] = test system: PC-3 prostate
[36] = test system: RPMI-8226 leukemia
[37] = test system: SF-268 CNS
[38] = test system: SF-295 CNS
[39] = test system: SF-539 CNS
[40] = test system: SK-MEL-2 melanoma
[41] = test system: SK-MEL-28 melanoma
[42] = test system: SK-MEL-5 melanoma
[43] = test system: SK-OV-3 ovarian
[44] = test system: SN12C renal
[45] = test system: SNB-19 CNS
[46] = test system: SNB-75 CNS
[47] = test system: SR leukemia
[48] = test system: SW-620 colon
[49] = test system: T-47D breast
[50] = test system: TK-10 renal
[51] = test system: U251 CNS
[52] = test system: UACC-257 melanoma
[53] = test system: UACC-62 melanoma
[54] = test system: UO-31 renal
[55] = test system: MALME-3M melanoma
[56] = test system: NCI-H522 lung
[57] = test system: OVCAR-4 ovarian
[58] = test system: RXF 393 renal

`NC(=S)Nc1[nH]c(=S)nc2[nH]ccc12` showed a TGI [1] greater than 100 µM, a TGI [2] greater than 100 µM and a TGI [3] greater than 100 µM. It also gave a TGI [4] greater than 100 µM, a TGI [5] greater than 100 µM and a TGI [6] greater than 100 µM. The TGI [7] was greater than 100 µM, the TGI [8] was greater than 100 µM and the TGI [9] was greater than 100 µM. It also gave a TGI [10] greater than 100 µM, a TGI [11] greater than 100 µM and a TGI [12] greater than 100 µM. For the same compound, the TGI [13] was 53.2 µM, the TGI [14] was greater than 100 µM and the TGI [15] was greater than 100 µM. The TGI [16] was greater than 100 µM, the TGI [17] was greater than 100 µM and the TGI [18] was greater than 100 µM. For the same compound, the TGI [19] was greater than 100 µM, the TGI [20] was greater than 100 µM and the TGI [21] was greater than 100 µM. It also gave a TGI [22] greater than 100 µM, a TGI [23] greater than 100 µM and a TGI [24] greater than 100 µM. For the same compound, the TGI [25] was greater than 100 µM, the TGI [26] was greater than 100 µM and the TGI [27] was greater than 100 µM. It also gave a TGI [28] greater than 100 µM, a TGI [29] greater than 100 µM and a TGI [30] greater than 100 µM. It also gave a TGI [31] greater than 100 µM, a TGI [32] of 94.3 µM and a TGI [33] greater than 100 µM. The TGI [34] was greater than 100 µM, the TGI [35] was greater than 100 µM and the TGI [36] was greater than 100 µM. The TGI [37] was greater than 100 µM, the TGI [38] was greater than 100 µM and the TGI [39] was greater than 100 µM. For the same compound, the TGI [40] was greater than 100 µM, the TGI [41] was greater than 100 µM and the TGI [42] was greater than 100 µM. For the same compound, the TGI [43] was greater than 100 µM, the TGI [44] was greater than 100 µM and the TGI [45] was greater than 100 µM. The TGI [46] was 62.9 µM, the TGI [47] was greater than 100 µM and the TGI [48] was greater than 100 µM. For the same compound, the TGI [49] was greater than 100 µM, the TGI [50] was greater than 100 µM and the TGI [51] was greater than 100 µM. It also gave a TGI [52] greater than 100 µM, a TGI [53] greater than 100 µM and a TGI [54] greater than 100 µM.
`C/C(=N\[N+](C)(C)C)c1ccc(C)c(C)c1` was tested, and the GI50 [1] was greater than 100 µM, the TGI [1] was greater than 100 µM and the TGI [2] was greater than 100 µM. It also gave a TGI [3] greater than 100 µM, a GI50 [4] greater than 100 µM and a TGI [4] greater than 100 µM. It also gave a TGI [5] greater than 100 µM, a GI50 [6] greater than 100 µM and a TGI [6] greater than 100 µM. For the same compound, the TGI [7] was greater than 100 µM, the TGI [8] was 38.3 µM and the TGI [9] was greater than 100 µM. It also gave a TGI [10] greater than 100 µM, a TGI [11] greater than 100 µM and a GI50 [12] greater than 100 µM. The TGI [12] was greater than 100 µM, the TGI [13] was greater than 100 µM and the GI50 [14] was greater than 100 µM. For the same compound, the TGI [14] was greater than 100 µM, the GI50 [15] was greater than 100 µM and the TGI [15] was greater than 100 µM. The GI50 [16] was greater than 100 µM, the TGI [16] was greater than 100 µM and the TGI [17] was greater than 100 µM. For the same compound, the TGI [18] was greater than 100 µM, the TGI [19] was greater than 100 µM and the TGI [20] was greater than 100 µM. For the same compound, the GI50 [21] was greater than 100 µM, the TGI [21] was greater than 100 µM and the GI50 [22] was greater than 100 µM. It also gave a TGI [22] greater than 100 µM, a GI50 [55] greater than 100 µM and a TGI [55] greater than 100 µM. The GI50 [23] was greater than 100 µM, the TGI [23] was greater than 100 µM and the GI50 [24] was greater than 100 µM. It also gave a TGI [24] greater than 100 µM, a TGI [25] greater than 100 µM and a TGI [26] greater than 100 µM. The GI50 [27] was greater than 100 µM, the TGI [27] was greater than 100 µM and the TGI [29] was greater than 100 µM. The TGI [30] was greater than 100 µM, the TGI [56] was greater than 100 µM and the GI50 [31] was greater than 100 µM. The TGI [31] was greater than 100 µM, the TGI [32] was greater than 100 µM and the TGI [57] was greater than 100 µM. It also gave a TGI [33] greater than 100 µM, a TGI [34] greater than 100 µM and a TGI [35] greater than 100 µM. It also gave a TGI [36] greater than 100 µM, a TGI [58] greater than 100 µM and a GI50 [37] greater than 100 µM. For the same compound, the TGI [37] was greater than 100 µM, the TGI [38] was greater than 100 µM and the GI50 [39] was greater than 100 µM. For the same compound, the TGI [39] was greater than 100 µM, the TGI [40] was greater than 100 µM and the GI50 [41] was greater than 100 µM. For the same compound, the TGI [41] was greater than 100 µM, the TGI [42] was greater than 100 µM and the TGI [43] was greater than 100 µM. The TGI [44] was 69.7 µM, the TGI [45] was greater than 100 µM and the TGI [46] was greater than 100 µM. It also gave a TGI [47] greater than 100 µM, a TGI [48] greater than 100 µM and a TGI [49] greater than 100 µM. It also gave a TGI [50] greater than 100 µM, a TGI [51] greater than 100 µM and a TGI [52] of 26.7 µM. The TGI [53] was greater than 100 µM and the TGI [54] was greater than 100 µM.
For `COc1cc(O)cc2oc(-c3ccc(O)cc3)cc(=O)c12`, the TGI [1] was greater than 100 µM, the TGI [2] was 78.3 µM and the TGI [3] was greater than 100 µM. For the same compound, the TGI [4] was greater than 100 µM, the TGI [5] was greater than 100 µM and the TGI [6] was greater than 100 µM. The TGI [7] was greater than 100 µM, the TGI [8] was greater than 100 µM and the TGI [9] was greater than 100 µM. The TGI [10] was greater than 100 µM, the TGI [11] was greater than 100 µM and the TGI [12] was greater than 100 µM. It also gave a TGI [13] greater than 100 µM, a TGI [14] greater than 100 µM and a TGI [15] greater than 100 µM. It also gave a TGI [16] greater than 100 µM, a TGI [17] greater than 100 µM and a TGI [18] greater than 100 µM. The TGI [19] was greater than 100 µM, the TGI [20] was greater than 100 µM and the TGI [21] was greater than 100 µM. For the same compound, the TGI [22] was greater than 100 µM, the TGI [55] was greater than 100 µM and the TGI [23] was greater than 100 µM. For the same compound, the TGI [24] was greater than 100 µM, the TGI [25] was greater than 100 µM and the TGI [26] was greater than 100 µM. It also gave a TGI [27] greater than 100 µM, a TGI [29] greater than 100 µM and a TGI [30] greater than 100 µM. The TGI [56] was greater than 100 µM, the TGI [31] was greater than 100 µM and the TGI [32] was greater than 100 µM. The TGI [33] was greater than 100 µM, the TGI [34] was greater than 100 µM and the TGI [35] was greater than 100 µM. For the same compound, the TGI [36] was greater than 100 µM, the TGI [58] was greater than 100 µM and the TGI [37] was greater than 100 µM. The TGI [38] was greater than 100 µM, the TGI [39] was greater than 100 µM and the TGI [40] was greater than 100 µM. The TGI [41] was greater than 100 µM, the TGI [42] was greater than 100 µM and the TGI [43] was greater than 100 µM. For the same compound, the TGI [44] was greater than 100 µM, the TGI [45] was greater than 100 µM and the TGI [46] was 62.7 µM. For the same compound, the TGI [47] was greater than 100 µM, the TGI [48] was greater than 100 µM and the TGI [49] was greater than 100 µM. It also gave a TGI [50] greater than 100 µM, a TGI [51] greater than 100 µM and a TGI [52] greater than 100 µM. For the same compound, the TGI [53] was greater than 100 µM and the TGI [54] was greater than 100 µM.
